Assay results from PMC6776562, “Inhibition of Rac1-dependent forgetting alleviates memory deficits in animal models of Alzheimer’s disease” (Protein & Cell, 2019).

Key:
[1] = In vitro metabolic stability in human liver microsomes; format: in vitro ADME
Procedure: (§1) Measurements of metabolic stability can be performed with liver microsomes, which are known to contain the major drug-metabolizing enzymes and UDP-glucuronosyltransferase (Baranczewski et al., [2006]). The in vitro metabolic stability levels of CS7171 and JKF-034 were measured using human, monkey, and mouse liver microsomes. The metabolic half-time (T1/2) and intrinsic clearance (Clint) were assayed using LC-MS analysis. Ketanserin is a potent, orally effective antagonist of endogenous serotonin. Its pharmacological profile is well studied (Brogden and Sorkin, [1990]). In this study, we used ketanserin as a control. If the T1/2 of the tested compound was 30–120 min, the compound was considered to show moderate metabolism in liver microsomes. If the T1/2 value was less than 30 min, the compound was considered to be susceptible to metabolism in liver microsomes.

[2] = In vitro metabolic stability in monkey liver microsomes; format: in vitro ADME
Procedure: as §1

Aβ42 = Aβ42 level by Western blot (6E10 antibody) after drug administration; format: in vivo, APP/PS1 mice; conditions: for level of Aβ42 monomer: 7-month-old APP/PS1 mice, two weeks of P.O administration
Procedure: The hippocampal tissues from human subjects and mice were harvested and stored in a liquid nitrogen tank for biochemical assay. The tissues were homogenized in cold lysis buffer (Merck-Millipore, 20-168). The insoluble debris were removed after centrifugation at 13,000 rpm (for 10 min, at 4 °C). For GTP-bound Rac/Cdc42, lysates were incubated with GST-tagged PAK (p21-activated kinase)-PBD agarose beads (Cytoskeleton, PAK02) overnight at 4 °C. On the second day, the beads were washed three times with lysis buffer before subjecting them to SDS-PAGE (15%) and transferring them onto nitrocellulose membranes (Millipore, HATF00010). The membranes were incubated with primary antibodies (for Rac1: BD Transduction Laboratories, #610650, 1:2,000 dilution; for Cdc42, Santa Cruz Biotechnology, lot No. sc-8401, 1:500 dilution) overnight at 4 °C and with HRP-conjugated goat anti-mouse IgG (Cell Signaling Technology, #7076) for 1 h at room temperature. Intensities of the detected bands were analyzed using ImageJ software (National Institutes of Health). The total amount of Rac1 in the lysate was detected using a routine Western blot procedure. RhoA-GTP levels were measured by using the Rho-GTP monoclonal antibody (New East, lot No. 26904, Dilution: 1:1,000). Information regarding the other antibodies used is as follows: anti-RhoA (67B9), Cell Signaling, lot No. #2117, dilution: 1:1,000; anti-Actin, Clone C4, Millipore, lot No. #3018859, dilution: 1:2,000; anti-Amyloid 1-42 6E10, BioLegend, lot No. 803001, dilution: 1:1,000; anti-Phospho-PAK1 ([…])/PAK2 ([…]), Cell Signaling, lot No. #2606, dilution: 1:1,000. page 2: A Representative […] blot of AE42 detected by AE42 monoclonal antibody (6E10) after two weeks of administration (P.O) of CS7171 and JKF-034 in 7-month-old APP/PS1 mice. B The level of AE42 monomer was decreased by JKF-034. […] D Representative […] blot of total RhoA, total Cdc42, RhoA-GTP, and Cdc42-GTP after two weeks of drug administration (P.O) of CS7171 and JKF-034 in 7-month-old APP/PS1 mice. […] Data information: All values are expressed as mean r SEM.

RhoA = RhoA activity (RhoA-GTP) by Western blot after drug administration; format: in vivo; conditions: 7-month-old APP/PS1 mice; two weeks of P.O administration
Procedure: The hippocampal tissues from human subjects and mice were harvested and stored in a liquid nitrogen tank for biochemical assay. The tissues were homogenized in cold lysis buffer (Merck-Millipore, 20-168). The insoluble debris were removed after centrifugation at 13,000 rpm (for 10 min, at 4 °C). For GTP-bound Rac/Cdc42, lysates were incubated with GST-tagged PAK (p21-activated kinase)-PBD agarose beads (Cytoskeleton, PAK02) overnight at 4 °C. On the second day, the beads were washed three times with lysis buffer before subjecting them to SDS-PAGE (15%) and transferring them onto nitrocellulose membranes (Millipore, HATF00010). The membranes were incubated with primary antibodies (for Rac1: BD Transduction Laboratories, #610650, 1:2,000 dilution; for Cdc42, Santa Cruz Biotechnology, lot No. sc-8401, 1:500 dilution) overnight at 4 °C and with HRP-conjugated goat anti-mouse IgG (Cell Signaling Technology, #7076) for 1 h at room temperature. Intensities of the detected bands were analyzed using ImageJ software (National Institutes of Health). The total amount of Rac1 in the lysate was detected using a routine Western blot procedure. RhoA-GTP levels were measured by using the Rho-GTP monoclonal antibody (New East, lot No. 26904, Dilution: 1:1,000). […] Data information: All values are expressed as mean r SEM.

Row | Clint [1] [mL/min/kg] | T1/2 [1] [min] | Clint [2] [mL/min/kg] | T1/2 [2] [min] | SMILES | level of Aβ42 monomer (Aβ42) | RhoA activity (RhoA) | Aβ42 accumulation (Aβ42; APP/PS1 mice, Fig. S4A–C)
1 | 407.54 | 4.27 | 229.15 | 8.85 | O=C1NN(c2ccc(Cl)c(Cl)c2)C(=O)C1=Cc1ccc(O)c(N(O)O)c1 [CS7171] | did not aff ect | did not affect | 
2 | 95.92 | 18.12 | 401.14 | 5.05 | O=S(=O)(c1ccccc1)N1CCN(Cc2ccccc2)CC1 [JKF-034] | decreased | did not affect | reduction
